Test results published in ChEMBL document CHEMBL3885881, “DrugMatrix”.

Organism: Rattus norvegicus
Test: DrugMatrix - Regimen: Daily Repeat
Type: toxicity, organism-based, Sprague-Dawley
Set-up: regimen Daily Repeat, gender Male, age 6-8 weeks
Conditions: in vivo, po, route oral GAVAGE, […]; for ABSOLUTE BASOPHIL / ABSOLUTE EOSINOPHIL / ABSOLUTE LYMPHOCYTE / ABSOLUTE MONOCYTE / ABSOLUTE SEGMENTED NEUTROPHIL / BASOPHIL / EOSINOPHIL / ERYTHROCYTE COUNT / HEMATOCRIT / HEMOGLOBIN / LEUKOCYTE COUNT / LYMPHOCYTE / MEAN CORPUSCULAR HEMOGLOBIN / MEAN CORPUSCULAR HEMOGLOBIN CONCENTRATION / MEAN CORPUSCULAR VOLUME / MONOCYTE / NEUTROPHIL / NUCLEATED RED BLOOD CELLS / PLATELET COUNT: tissue Blood; for ALANINE AMINOTRANSFERASE / ALBUMIN / ALKALINE PHOSPHATASE / ASPARTATE AMINOTRANSFERASE / BLOOD UREA NITROGEN / CARBON DIOXIDE / CHLORIDE / CHOLESTEROL / CREATINE PHOSPHOKINASE / CREATININE / GLUCOSE / LACTATE DEHYDROGENASE / LIPASE / PHOSPHORUS / POTASSIUM / SODIUM / TOTAL BILIRUBIN / TOTAL PROTEIN / URIC ACID: tissue Plasma
[1] = 40 mg/kg, 72 h, dose level Low, time 3 day
[2] = 40 mg/kg, 120 h, dose level Low, time 5 day
[3] = 444 mg/kg, 72 h, dose level High, time 3 day
[4] = 444 mg/kg, 120 h, dose level High, time 5 day

COC(=O)c1ccccc1O [METHYL SALICYLATE]
ABSOLUTE BASOPHIL [1]: 0 CELLS/uL | ABSOLUTE EOSINOPHIL [1]: 96.67 CELLS/uL | ABSOLUTE LYMPHOCYTE [1]: 12979.67 CELLS/uL | ABSOLUTE MONOCYTE [1]: 290.67 CELLS/uL | ABSOLUTE SEGMENTED NEUTROPHIL [1]: 1366.33 CELLS/uL | BASOPHIL [1]: 0% | EOSINOPHIL [1]: 0.67% | ERYTHROCYTE COUNT [1]: 5.47 x10E6/uL | HEMATOCRIT [1]: 34.27% | HEMOGLOBIN [1]: 13.3 G/DL | LEUKOCYTE COUNT [1]: 14.73 x10E3/uL | LYMPHOCYTE [1]: 88% | MEAN CORPUSCULAR HEMOGLOBIN [1]: 24.33 pg | MEAN CORPUSCULAR HEMOGLOBIN CONCENTRATION [1]: 38.83 G/DL | MEAN CORPUSCULAR VOLUME [1]: 62.67 fL | MONOCYTE [1]: 2% | NEUTROPHIL [1]: 9.33% | NUCLEATED RED BLOOD CELLS [1]: 0 /100WBC | PLATELET COUNT [1]: 1233.67 x10E3/uL | ALANINE AMINOTRANSFERASE [1]: 69.33 u/L | ALBUMIN [1]: 3.93 G/DL | ALKALINE PHOSPHATASE [1]: 411 u/L | ASPARTATE AMINOTRANSFERASE [1]: 90 u/L | BLOOD UREA NITROGEN [1]: 10.67 mg/dL | CARBON DIOXIDE [1]: 25 mmol/L | CHLORIDE [1]: 101 MEQ/L | CHOLESTEROL [1]: 68 mg/dL | CREATINE PHOSPHOKINASE [1]: 276 u/L | CREATININE [1]: 0.17 mg/dL | GLUCOSE [1]: 149.67 mg/dL | LACTATE DEHYDROGENASE [1]: 146.67 u/L | LIPASE [1]: 12 u/L | PHOSPHORUS [1]: 11.03 mg/dL | POTASSIUM [1]: 6.55 MEQ/L | SODIUM [1]: 142.03 MEQ/L | TOTAL BILIRUBIN [1]: 0.2 mg/dL | TOTAL PROTEIN [1]: 5.6 G/DL | URIC ACID [1]: 1.37 mg/dL | ABSOLUTE BASOPHIL [2]: 0 CELLS/uL | ABSOLUTE EOSINOPHIL [2]: 46 CELLS/uL | ABSOLUTE LYMPHOCYTE [2]: 12546.67 CELLS/uL | ABSOLUTE MONOCYTE [2]: 258.67 CELLS/uL | ABSOLUTE SEGMENTED NEUTROPHIL [2]: 1848.67 CELLS/uL | BASOPHIL [2]: 0% | EOSINOPHIL [2]: 0.33% | ERYTHROCYTE COUNT [2]: 5.18 x10E6/uL | HEMATOCRIT [2]: 34.3% | HEMOGLOBIN [2]: 13.77 G/DL | LEUKOCYTE COUNT [2]: 14.7 x10E3/uL | LYMPHOCYTE [2]: 85.67% | MEAN CORPUSCULAR HEMOGLOBIN [2]: 26.7 pg | MEAN CORPUSCULAR HEMOGLOBIN CONCENTRATION [2]: 40.13 G/DL | MEAN CORPUSCULAR VOLUME [2]: 66.53 fL | MONOCYTE [2]: 1.67% | NEUTROPHIL [2]: 12.33% | NUCLEATED RED BLOOD CELLS [2]: 0 /100WBC | PLATELET COUNT [2]: 1368.67 x10E3/uL | ALANINE AMINOTRANSFERASE [2]: 59 u/L | ALBUMIN [2]: 4.17 G/DL | ALKALINE PHOSPHATASE [2]: 468.33 u/L | ASPARTATE AMINOTRANSFERASE [2]: 97.67 u/L | BLOOD UREA NITROGEN [2]: 11 mg/dL | CARBON DIOXIDE [2]: 34.67 mmol/L | CHLORIDE [2]: 100.67 MEQ/L | CHOLESTEROL [2]: 60.33 mg/dL | CREATINE PHOSPHOKINASE [2]: 364.67 u/L | CREATININE [2]: 0.16 mg/dL | GLUCOSE [2]: 144 mg/dL | LACTATE DEHYDROGENASE [2]: 490.67 u/L | LIPASE [2]: 11 u/L | PHOSPHORUS [2]: 10.47 mg/dL | POTASSIUM [2]: 6.4 MEQ/L | SODIUM [2]: 143.33 MEQ/L | TOTAL BILIRUBIN [2]: 0.2 mg/dL | TOTAL PROTEIN [2]: 5.73 G/DL | URIC ACID [2]: 1.43 mg/dL | ABSOLUTE BASOPHIL [3]: 0 CELLS/uL | ABSOLUTE EOSINOPHIL [3]: 0 CELLS/uL | ABSOLUTE LYMPHOCYTE [3]: 15083 CELLS/uL | ABSOLUTE MONOCYTE [3]: 294 CELLS/uL | ABSOLUTE SEGMENTED NEUTROPHIL [3]: 1723 CELLS/uL | BASOPHIL [3]: 0% | EOSINOPHIL [3]: 0% | ERYTHROCYTE COUNT [3]: 6.27 x10E6/uL | HEMATOCRIT [3]: 39.33% | HEMOGLOBIN [3]: 15.27 G/DL | LEUKOCYTE COUNT [3]: 17.1 x10E3/uL | LYMPHOCYTE [3]: 88.33% | MEAN CORPUSCULAR HEMOGLOBIN [3]: 24.37 pg | MEAN CORPUSCULAR HEMOGLOBIN CONCENTRATION [3]: 38.83 G/DL | MEAN CORPUSCULAR VOLUME [3]: 62.8 fL | MONOCYTE [3]: 1.67% | NEUTROPHIL [3]: 10% | NUCLEATED RED BLOOD CELLS [3]: 0 /100WBC | PLATELET COUNT [3]: 1017 x10E3/uL | ALANINE AMINOTRANSFERASE [3]: 109 u/L | ALBUMIN [3]: 4.4 G/DL | ALKALINE PHOSPHATASE [3]: 443.33 u/L | ASPARTATE AMINOTRANSFERASE [3]: 121 u/L | BLOOD UREA NITROGEN [3]: 11.33 mg/dL | CARBON DIOXIDE [3]: 27.67 mmol/L | CHLORIDE [3]: 99.33 MEQ/L | CHOLESTEROL [3]: 62.33 mg/dL | CREATINE PHOSPHOKINASE [3]: 782 u/L | CREATININE [3]: 0.19 mg/dL | GLUCOSE [3]: 148.33 mg/dL | LACTATE DEHYDROGENASE [3]: 151.33 u/L | LIPASE [3]: 11.67 u/L | PHOSPHORUS [3]: 13.93 mg/dL | POTASSIUM [3]: 5.57 MEQ/L | SODIUM [3]: 143.77 MEQ/L | TOTAL BILIRUBIN [3]: 0.2 mg/dL | TOTAL PROTEIN [3]: 5.73 G/DL | URIC ACID [3]: 1 mg/dL | ABSOLUTE BASOPHIL [4]: 0 CELLS/uL | ABSOLUTE EOSINOPHIL [4]: 54.67 CELLS/uL | ABSOLUTE LYMPHOCYTE [4]: 13302.33 CELLS/uL | ABSOLUTE MONOCYTE [4]: 273 CELLS/uL | ABSOLUTE SEGMENTED NEUTROPHIL [4]: 1603.33 CELLS/uL | BASOPHIL [4]: 0% | EOSINOPHIL [4]: 0.33% | ERYTHROCYTE COUNT [4]: 6.16 x10E6/uL | HEMATOCRIT [4]: 38.17% | HEMOGLOBIN [4]: 14.63 G/DL | LEUKOCYTE COUNT [4]: 15.23 x10E3/uL | LYMPHOCYTE [4]: 87.67% | MEAN CORPUSCULAR HEMOGLOBIN [4]: 23.73 pg | MEAN CORPUSCULAR HEMOGLOBIN CONCENTRATION [4]: 38.4 G/DL | MEAN CORPUSCULAR VOLUME [4]: 61.93 fL | MONOCYTE [4]: 2% | NEUTROPHIL [4]: 10% | NUCLEATED RED BLOOD CELLS [4]: 0.33 /100WBC | PLATELET COUNT [4]: 914.67 x10E3/uL | ALANINE AMINOTRANSFERASE [4]: 125.67 u/L | ALBUMIN [4]: 4.53 G/DL | ALKALINE PHOSPHATASE [4]: 515 u/L | ASPARTATE AMINOTRANSFERASE [4]: 127.67 u/L | BLOOD UREA NITROGEN [4]: 18.67 mg/dL | CARBON DIOXIDE [4]: 29 mmol/L | CHLORIDE [4]: 103 MEQ/L | CHOLESTEROL [4]: 65.33 mg/dL | CREATINE PHOSPHOKINASE [4]: 548 u/L | CREATININE [4]: 0.23 mg/dL | GLUCOSE [4]: 140.67 mg/dL | LACTATE DEHYDROGENASE [4]: 324.33 u/L | LIPASE [4]: 11 u/L | PHOSPHORUS [4]: 13.1 mg/dL | POTASSIUM [4]: 5.71 MEQ/L | SODIUM [4]: 146.3 MEQ/L | TOTAL BILIRUBIN [4]: 0.27 mg/dL | TOTAL PROTEIN [4]: 5.97 G/DL | URIC ACID [4]: 0.9 mg/dL
